From article PMC6199744, “Development of Chemical Proteomics for the Folateome and Analysis of the Kinetoplastid Folateome” (ACS Infectious Diseases, 2018)
Like-named read-outs stand apart in the source and are kept apart here.

How the values were obtained:
Type in all cases: binding
[1] = target: T1, HeLa cell extract proteins (Homo sapiens, UniProt Q7RTS9)
T1 construct: endogenous in cells; host or cells: HeLa cell extract
T1 sequence (Q7RTS9 1-669): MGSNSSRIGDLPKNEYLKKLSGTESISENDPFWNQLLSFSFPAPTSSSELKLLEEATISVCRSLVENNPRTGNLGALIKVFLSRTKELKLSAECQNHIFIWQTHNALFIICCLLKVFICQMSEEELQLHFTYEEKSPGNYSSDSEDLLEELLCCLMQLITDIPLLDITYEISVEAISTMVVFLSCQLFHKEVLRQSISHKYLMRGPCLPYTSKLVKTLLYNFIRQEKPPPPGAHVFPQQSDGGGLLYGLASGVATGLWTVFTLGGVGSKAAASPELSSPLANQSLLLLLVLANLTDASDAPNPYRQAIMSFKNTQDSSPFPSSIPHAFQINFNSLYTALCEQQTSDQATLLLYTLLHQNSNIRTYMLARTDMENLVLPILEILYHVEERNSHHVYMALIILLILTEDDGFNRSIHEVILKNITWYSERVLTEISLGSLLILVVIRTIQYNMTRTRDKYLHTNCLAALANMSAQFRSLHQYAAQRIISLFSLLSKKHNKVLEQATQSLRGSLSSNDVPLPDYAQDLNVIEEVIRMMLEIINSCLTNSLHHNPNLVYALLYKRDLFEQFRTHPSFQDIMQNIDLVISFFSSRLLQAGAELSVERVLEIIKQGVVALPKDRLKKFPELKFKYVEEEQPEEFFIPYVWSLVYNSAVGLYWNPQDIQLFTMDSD

[2] = target: T2, HeLa cell extract proteins (Homo sapiens, UniProt P68104)
T2 construct: endogenous in cells; host or cells: HeLa cell extract
T2 sequence (P68104 1-462): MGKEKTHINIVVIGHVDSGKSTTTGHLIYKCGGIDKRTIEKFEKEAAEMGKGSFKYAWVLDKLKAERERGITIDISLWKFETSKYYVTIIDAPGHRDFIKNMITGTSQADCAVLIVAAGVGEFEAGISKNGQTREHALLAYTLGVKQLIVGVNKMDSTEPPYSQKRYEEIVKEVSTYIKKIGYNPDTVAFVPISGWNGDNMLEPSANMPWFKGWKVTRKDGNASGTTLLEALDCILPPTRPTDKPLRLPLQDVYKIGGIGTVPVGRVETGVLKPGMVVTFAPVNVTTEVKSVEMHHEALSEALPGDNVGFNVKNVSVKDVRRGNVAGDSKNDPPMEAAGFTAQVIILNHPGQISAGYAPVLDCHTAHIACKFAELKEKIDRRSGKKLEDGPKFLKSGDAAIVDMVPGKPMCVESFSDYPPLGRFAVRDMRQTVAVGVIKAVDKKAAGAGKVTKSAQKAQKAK

[3] = target: T3, HeLa cell extract proteins (Homo sapiens, UniProt P61160)
T3 construct: endogenous in cells; host or cells: HeLa cell extract

[4] = target: T4, HeLa cell extract proteins (Homo sapiens, UniProt Q9UBV8)
T4 construct: endogenous in cells; host or cells: HeLa cell extract
T4 sequence (Q9UBV8 1-284): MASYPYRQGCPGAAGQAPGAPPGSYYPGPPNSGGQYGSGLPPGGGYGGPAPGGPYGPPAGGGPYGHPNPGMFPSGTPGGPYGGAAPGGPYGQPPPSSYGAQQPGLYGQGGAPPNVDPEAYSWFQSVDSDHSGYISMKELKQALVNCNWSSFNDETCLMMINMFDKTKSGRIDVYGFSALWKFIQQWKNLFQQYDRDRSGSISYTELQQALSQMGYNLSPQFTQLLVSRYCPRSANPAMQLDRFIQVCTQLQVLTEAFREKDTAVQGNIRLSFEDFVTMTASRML

[5] = target: T5, HeLa cell extract proteins (Homo sapiens, UniProt Q9UI30)
T5 construct: endogenous in cells; host or cells: HeLa cell extract
T5 sequence (Q9UI30 1-125): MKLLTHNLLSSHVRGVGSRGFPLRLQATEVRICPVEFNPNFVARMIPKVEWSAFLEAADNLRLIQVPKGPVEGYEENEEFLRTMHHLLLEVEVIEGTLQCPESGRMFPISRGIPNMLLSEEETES

[6] = target: T6, HeLa cell extract proteins (Homo sapiens, UniProt P11413)
T6 construct: endogenous in cells; host or cells: HeLa cell extract

[7] = target: T7, HeLa cell extract proteins (Homo sapiens, UniProt Q04837)
T7 construct: endogenous in cells; host or cells: HeLa cell extract
T7 sequence (Q04837 17-148): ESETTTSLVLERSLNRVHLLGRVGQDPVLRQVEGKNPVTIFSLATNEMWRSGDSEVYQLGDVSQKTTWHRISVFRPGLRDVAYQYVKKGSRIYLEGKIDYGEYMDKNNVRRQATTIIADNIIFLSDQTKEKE

[8] = target: T8, HeLa cell extract proteins (Homo sapiens, UniProt P43362)
T8 construct: endogenous in cells; host or cells: HeLa cell extract
T8 sequence (P43362 1-315): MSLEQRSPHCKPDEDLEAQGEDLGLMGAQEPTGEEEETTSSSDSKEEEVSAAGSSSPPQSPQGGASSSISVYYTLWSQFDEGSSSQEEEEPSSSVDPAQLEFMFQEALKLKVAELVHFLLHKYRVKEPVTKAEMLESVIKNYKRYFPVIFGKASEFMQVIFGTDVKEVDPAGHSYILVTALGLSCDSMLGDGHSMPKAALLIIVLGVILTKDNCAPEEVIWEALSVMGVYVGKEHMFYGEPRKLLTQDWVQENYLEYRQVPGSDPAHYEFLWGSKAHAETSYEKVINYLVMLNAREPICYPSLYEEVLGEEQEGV

[9] = target: T9, HeLa cell extract proteins (Homo sapiens, UniProt P07900)
T9 construct: endogenous in cells; host or cells: HeLa cell extract

[10] = HeLa, protein HSP90AA1 (HEAT SHOCK PROTEIN 90KDA ALPHA (CYTOSOLIC), CLASS A MEMBER 1 ISOFORM 1.)

T6 sequence (P11413 whole entry): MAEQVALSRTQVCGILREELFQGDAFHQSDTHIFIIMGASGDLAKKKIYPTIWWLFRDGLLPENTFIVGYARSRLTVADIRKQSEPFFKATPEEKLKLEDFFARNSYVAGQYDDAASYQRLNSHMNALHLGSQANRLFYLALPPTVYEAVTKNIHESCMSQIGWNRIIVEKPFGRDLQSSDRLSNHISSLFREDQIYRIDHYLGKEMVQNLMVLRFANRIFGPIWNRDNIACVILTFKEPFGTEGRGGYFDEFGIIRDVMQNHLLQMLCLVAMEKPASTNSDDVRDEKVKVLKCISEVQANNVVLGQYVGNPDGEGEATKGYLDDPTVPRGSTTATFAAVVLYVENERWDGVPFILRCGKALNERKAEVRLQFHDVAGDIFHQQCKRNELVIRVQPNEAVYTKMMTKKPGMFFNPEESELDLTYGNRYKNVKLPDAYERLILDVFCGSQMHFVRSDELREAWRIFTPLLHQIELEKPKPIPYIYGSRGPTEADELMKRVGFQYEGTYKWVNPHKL

SMILES | fold changes relative to vehicle control ([1]; HeLa, protein DYM) | fold changes relative to vehicle control ([2]; protein EEF1A1, HeLa) | fold changes relative to vehicle control ([3]; protein ACTR2, HeLa) | fold changes relative to vehicle control ([4]; HeLa, protein PEF1) | fold changes relative to vehicle control ([5]; HeLa, protein HSPC152) | fold changes relative to vehicle control ([6]; protein G6PD, HeLa) | fold changes relative to vehicle control ([7]; HeLa, protein SSBP1) | fold changes relative to vehicle control ([8]; protein MAGEA9, HeLa) | fold changes relative to vehicle control [9, 10] | fold changes relative to vehicle control ([2]; HeLa, captured protein EEF1A1) | fold changes relative to vehicle control ([3]; HeLa, protein ACTR2) | fold changes relative to vehicle control ([4]; HeLa, captured protein PEF1) | fold changes relative to vehicle control ([6]; HeLa, protein G6PD) | fold changes relative to vehicle control ([8]; HeLa, protein MAGEA9) | fold changes relative to vehicle control ([9]; HeLa, protein HSP90AA1) | other results
Nc1nc2cccc(-c3ccccc3)c2n1Cc1ccc(Cl)c(Cl)c1 [compound 3] | 0.88 | 0.97 | 1.13 | 1.06 | 1.04 | 1.03 | 1 | 0.92 | 0.94 fold | – | – | – | – | – | – | –
CCCCCCOc1ccc(Cc2cnc(N)nc2N)cc1 [compound 1] | 0.89 | 1.17 | 1.06 | 0.88 | 0.96 | 1.15 | 1.05 | 0.78 | 1.4 fold | – | – | – | – | – | – | –
NCCCNc1ccc(C(=O)NC(CCC(=O)O)C(=O)O)cc1 (stereo not drawn) [compound 7] | 0.94 | – | – | – | 1.29 | – | 0.95 | – | – | 0.93 | 0.97 | 0.99 | 1.09 | 1 | 0.92 | –
CCCCCCOc1cccc(Cc2cnc(N)nc2N)c1 [compound 2] | 1.27 | 1.47 | 1.44 | 0.76 | 1.18 | 1.89 | 0.95 | 1.24 | 2.39 fold | – | – | – | – | – | – | –
NCCOCCOCC(=O)Nc1nc2ncc(CNc3ccc(C(=O)NC(CCC(=O)O)C(=O)O)cc3)nc2c(=O)[nH]1 (stereo not drawn) [compound 6] | 0.86 | – | – | – | 1.36 | – | 0.96 | – | – | 0.99 | 1.18 | 0.87 | 1.32 | 1.04 | 1.32 | –
Nc1nc2[nH]cc(CCc3ccc(C(=O)N[C@@H](CCC(=O)O)C(=O)O)cc3)c2c(=O)[nH]1 [PTX, pemetrexed] | – | – | – | – | – | – | – | – | – | – | – | – | – | – | – | fold changes relative to vehicle control [1]: 0.68; fold changes relative to vehicle control [2]: 0.93; fold changes relative to vehicle control [3]: 1.08; fold changes relative to vehicle control [4]: 0.99; fold changes relative to vehicle control [5]: 1.21; fold changes relative to vehicle control [6]: 1.21; fold changes relative to vehicle control [7]: 1; fold changes relative to vehicle control [8]: 0.82; fold changes relative to vehicle control [9]: 1.13
Nc1nc2c(c(=O)[nH]1)N(C=O)C(CNc1ccc(C(=O)N[C@@H](CCC(=O)O)C(=O)O)cc1)CN2 (stereo partly drawn) [LEU, leucovorin] | 0.78 | – | – | – | 1.17 | – | 1.07 | – | – | 1.01 | 0.99 | 0.95 | 1.12 | 0.95 | 1.06 | –
